In ChEMBL document CHEMBL3045982, “Design, synthesis and structure-activity relationship of novel coumarin derivatives” (Pest Manag Sci, 2011):

Columns and labels:
[1] = test system: Pseudoperonospora cubensis; assay: Fungicidal activity against Pseudoperonospora cubensis at 25 mg/L relative to untreated control; assay type: functional
[2] = test system: Pseudoperonospora cubensis; assay: Fungicidal activity against Pseudoperonospora cubensis at 6.25 mg/L relative to untreated control; assay type: functional
[3] = test system: Pseudoperonospora cubensis; assay: Fungicidal activity against Pseudoperonospora cubensis at 50 mg/L relative to untreated control; assay type: functional
[4] = test system: Pseudoperonospora cubensis; assay: Fungicidal activity against Pseudoperonospora cubensis at 100 mg/L relative to untreated control; assay type: functional
[5] = test system: Pseudoperonospora cubensis; assay: Fungicidal activity against Pseudoperonospora cubensis at 200 mg/L relative to untreated control; assay type: functional
Cytospora [6] = assay: Fungicidal activity against Cytospora mandshurica Miura under green house condition in presence of 98% compound; assay type: functional, organism-based
Cytospora [7] = assay: Fungicidal activity against Cytospora mandshurica Miura at 1000 mg/L of 25% compound under field trials condition relative to untreated control; assay type: functional
Cytospora [8] = assay: Fungicidal activity against Cytospora mandshurica Miura under green house condition in presence of 20% compound; assay type: functional, organism-based
Cytospora [9] = assay: Fungicidal activity against Cytospora mandshurica Miura at 1000 mg/L of 20% compound under field trials condition relative to untreated control; assay type: functional
Cytospora [10] = assay: Fungicidal activity against Cytospora mandshurica Miura under green house condition in presence of 96% compound; assay type: functional, organism-based
Cytospora [11] = assay: Fungicidal activity against Cytospora mandshurica Miura at 500 mg/L of 20% compound under field trials conditions relative to untreated control; assay type: functional

| Compound | Activity [1] [%] | Activity [2] [%] | Activity [3] [%] | Activity [4] [%] | Activity [5] [%] | EC50 (Cytospora [6]) [µg/mL] | Efficacy (Cytospora [7]) [%] | EC50 (Cytospora [8]) [µg/mL] | Efficacy (Cytospora [9]) [%] | EC50 (Cytospora [10]) [µg/mL] | Efficacy (Cytospora [11]) [%] |
| --- | --- | --- | --- | --- | --- | --- | --- | --- | --- | --- | --- |
| CO/C=C(/C(=O)OC)c1ccccc1COc1ccc2ccc(=O)oc2c1 | 50 | 0 | 70 | 100 | 100 |  |  |  |  |  |  |
| CO/C=C(/C(=O)OC)c1ccccc1COc1ccc2c(C)cc(=O)oc2c1 | 97 | 45 | 100 | 100 | 100 |  |  |  |  |  |  |
| CCc1cc(=O)oc2cc(OCc3ccccc3/C(=C\OC)C(=O)OC)ccc12 | 100 | 50 | 100 | 100 | 100 |  |  |  |  |  |  |
| CCCc1cc(=O)oc2cc(OCc3ccccc3/C(=C\OC)C(=O)OC)ccc12 | 95 | 55 | 100 | 100 | 100 |  |  |  |  |  |  |
| CO/C=C(/C(=O)OC)c1ccccc1COc1ccc2c(C(C)C)cc(=O)oc2c1 | 95 | 50 | 100 | 100 | 100 |  |  |  |  |  |  |
| CO/C=C(/C(=O)OC)c1ccccc1COc1ccc2c(C(F)(F)F)cc(=O)oc2c1 | 70 | 50 | 80 | 95 | 100 |  |  |  |  |  |  |
| CO/C=C(/C(=O)OC)c1ccccc1COc1ccc2c(-c3ccccc3)cc(=O)oc2c1 | 60 | 50 | 80 | 100 | 100 |  |  |  |  |  |  |
| CO/C=C(/C(=O)OC)c1ccccc1COc1ccc2c(-c3ccc(Cl)cc3)cc(=O)oc2c1 |  |  |  |  | 70 |  |  |  |  |  |  |
| CO/C=C(/C(=O)OC)c1ccccc1COc1ccc2c(-c3ccc(C(F)(F)F)cc3)cc(=O)oc2c1 |  |  |  | 70 | 85 |  |  |  |  |  |  |
| CO/C=C(/C(=O)OC)c1ccccc1COc1ccc2c(-c3ccc(Cl)nc3)cc(=O)oc2c1 | 40 | 0 | 75 | 80 | 90 |  |  |  |  |  |  |
| CO/C=C(/C(=O)OC)c1ccccc1COc1ccc2c(C)c(C)c(=O)oc2c1 | 100 | 85 | 100 | 100 | 100 |  |  |  |  |  |  |
| CCc1c(C)c2ccc(OCc3ccccc3/C(=C\OC)C(=O)OC)cc2oc1=O | 20 | 0 | 80 | 100 | 100 |  |  |  |  |  |  |
| CCCc1c(C)c2ccc(OCc3ccccc3/C(=C\OC)C(=O)OC)cc2oc1=O | 20 | 0 | 30 | 80 | 100 |  |  |  |  |  |  |
| CCCCCCc1c(C)c2ccc(OCc3ccccc3/C(=C\OC)C(=O)OC)cc2oc1=O | 100 | 80 | 100 | 100 | 100 |  |  |  |  |  |  |
| CO/C=C(/C(=O)OC)c1ccccc1COc1ccc2c(C)c(Cl)c(=O)oc2c1 | 100 | 75 | 100 | 100 | 100 |  |  |  |  |  |  |
| CO/C=C(/C(=O)OC)c1ccccc1COc1ccc2c(C)c(F)c(=O)oc2c1 | 95 | 60 | 100 | 100 | 100 |  |  |  |  |  |  |
| CO/C=C(/C(=O)OC)c1ccccc1COc1ccc2c3c(c(=O)oc2c1)CCC3 | 100 | 40 |  |  |  |  |  |  |  |  |  |
| CO/C=C(/C(=O)OC)c1ccccc1COc1ccc2c3c(c(=O)oc2c1)CCCC3 | 100 | 75 |  |  |  |  |  |  |  |  |  |
| CO/C=C(/C(=O)OC)c1ccccc1COc1ccc2c3c(c(=O)oc2c1C)CCC3 |  |  |  |  | 0 |  |  |  |  |  |  |
| CO/C=C(/C(=O)OC)c1ccccc1COc1ccc2c3c(c(=O)oc2c1C)CCCC3 |  |  |  |  | 50 |  |  |  |  |  |  |

| Compound | Activity [1] [%] | Activity [2] [%] | Activity [3] [%] | Activity [4] [%] | Activity [5] [%] | EC50 (Cytospora [6]) [µg/mL] | Efficacy (Cytospora [7]) [%] | EC50 (Cytospora [8]) [µg/mL] | Efficacy (Cytospora [9]) [%] | EC50 (Cytospora [10]) [µg/mL] | Efficacy (Cytospora [11]) [%] |
| --- | --- | --- | --- | --- | --- | --- | --- | --- | --- | --- | --- |
| CO/C=C(/C(=O)OC)c1ccccc1COc1ccc2c(-c3ccccc3)cc(=O)oc2c1C | 50 | 30 | 90 | 90 | 95 |  |  |  |  |  |  |
| CO/C=C(/C(=O)OC)c1ccccc1COc1ccc2c(C)cc(=O)oc2c1C(C)=O |  |  |  |  | 60 |  |  |  |  |  |  |
| CO/C=C(/C(=O)OC)c1ccccc1COc1ccc2c(C)cc(=O)oc2c1/C(C)=N/OC |  |  |  |  | 30 |  |  |  |  |  |  |
| CO/C=C(/C(=O)OC)c1ccccc1COc1cc2oc(=O)cc(C)c2cc1C(C)=O | 50 | 0 | 80 | 85 | 90 |  |  |  |  |  |  |
| CO/C=C(/C(=O)OC)c1ccccc1COc1cc2oc(=O)cc(C)c2cc1/C(C)=N\OC |  |  |  |  | 80 |  |  |  |  |  |  |
| CO/N=C(/C(=O)OC)c1ccccc1COc1ccc2c(C)c(Cl)c(=O)oc2c1 | 85 | 65 | 90 | 100 | 100 |  |  |  |  |  |  |
| CO/N=C(/C(=O)OC)c1ccccc1COc1ccc2c(C)c(C)c(=O)oc2c1C | 50 | 40 | 60 | 85 | 95 |  |  |  |  |  |  |
| CNC(=O)/C(=N/OC)c1ccccc1COc1ccc2c(C)c(C)c(=O)oc2c1C | 20 | 0 | 30 | 85 | 95 |  |  |  |  |  |  |
| COC(=O)N(OC)c1ccccc1COc1ccc2c(C)c(C)c(=O)oc2c1 | 85 | 65 | 100 | 100 | 100 |  |  |  |  |  |  |
| CCCCc1c(C)c2ccc(OCc3ccccc3N(OC)C(=O)OC)cc2oc1=O | 75 | 50 | 90 | 100 | 100 |  |  |  |  |  |  |
| COC(=O)N(OC)c1ccccc1COc1ccc2c(C)c(C)c(=O)oc2c1C | 50 | 0 | 75 | 80 | 90 |  |  |  |  |  |  |
| CO/C=C(/C(=O)OC)c1ccccc1COc1cc(=O)oc2ccccc12 | 0 | 0 | 30 | 70 | 85 |  |  |  |  |  |  |
| CO/C=C(/C(=O)OC)c1ccccc1COc1ccc2oc(=O)cc(C)c2c1 | 0 | 0 | 30 | 60 | 85 |  |  |  |  |  |  |
| CO/C=C(/C(=O)OC)c1ccccc1COc1ccc2oc(=O)c(C)c(C)c2c1 |  |  |  |  | 70 |  |  |  |  |  |  |
| CO/C=C(/C(=O)OC)c1ccccc1COc1cccc2c(C)c(C)c(=O)oc12 |  |  |  |  | 0 |  |  |  |  |  |  |
| CO/C=C(/C(=O)OC)c1ccccc1Oc1cc(Oc2ccccc2C#N)ncn1 [AZOXYSTROBIN] | 100 | 95 |  |  |  | 2.78 | 73.5 |  |  |  |  |
| CCCCc1c(C)c2ccc(OCc3ccccc3/C(=C\OC)C(=O)OC)cc2oc1=O [Coumoxystrobin] | 100 | 95 | 100 | 100 | 100 |  |  | 1.72 | 97.3 | 1.83 | 88.5 |
| CO/N=C(/C(=O)OC)c1ccccc1COc1ccccc1C [KRESOXIM-METHYL] | 35 | 0 |  |  |  |  |  |  |  |  |  |
| CO/C=C(/C(=O)OC)c1ccccc1COc1cccc(C(F)(F)F)n1 [PICOXYSTROBIN] | 95 | 50 |  |  |  |  |  |  |  |  |  |
